Measurements taken from PubChem BioAssay AID1918998 (Molecular Pharmacology Branch, DTP, NCI, 2023).

Test system: 521955-158-R2-J5-PDC complex spheroid growth
Experiment: Anticancer human tumor 521955-158-R2-J5-PDC patient-derived pancreatic carcinoma cell line growth inhibition [AhR]
Conditions: for IC50: curve of first compound; for viability, T/C: stronger effect = lower value
How it was run: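 Spheroids combined tumor cells with HUVEC endothelial cells and human MSCs as stroma. AhR antagonists were paired with standard or investigational drugs, each dosed in half-log steps down from near clinical Cmax, or from 10 microM where Cmax was unknown.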

[1] = second compound 0.1 µM, first compound 0.000949 µM
[2] = second compound 0.1 µM, first compound 0.003 µM
[3] = second compound 0.1 µM, first compound 0.00949 µM
[4] = second compound 0.1 µM, first compound 0.03 µM
[5] = second compound 0.1 µM, first compound 0.0949 µM
[6] = second compound 0.1 µM, first compound 0.3 µM
[7] = second compound 0.316 µM, first compound 0.000949 µM
[8] = second compound 0.316 µM, first compound 0.003 µM
[9] = second compound 0.316 µM, first compound 0.00949 µM
[10] = second compound 0.316 µM, first compound 0.03 µM
[11] = second compound 0.316 µM, first compound 0.0949 µM
[12] = second compound 0.316 µM, first compound 0.3 µM
[13] = second compound 1 µM, first compound 0.000949 µM
[14] = second compound 1 µM, first compound 0.003 µM
[15] = second compound 1 µM, first compound 0.00949 µM
[16] = second compound 1 µM, first compound 0.03 µM
[17] = second compound 1 µM, first compound 0.0949 µM
[18] = second compound 1 µM, first compound 0.3 µM
[19] = second compound 3.16 µM, first compound 0.000949 µM
[20] = second compound 3.16 µM, first compound 0.003 µM
[21] = second compound 3.16 µM, first compound 0.00949 µM
[22] = second compound 3.16 µM, first compound 0.03 µM
[23] = second compound 3.16 µM, first compound 0.0949 µM
[24] = second compound 3.16 µM, first compound 0.3 µM
[25] = second compound 10 µM, first compound 0.000949 µM
[26] = second compound 10 µM, first compound 0.003 µM
[27] = second compound 10 µM, first compound 0.00949 µM
[28] = second compound 10 µM, first compound 0.03 µM
[29] = second compound 10 µM, first compound 0.0949 µM
[30] = second compound 10 µM, first compound 0.3 µM
[31] = second compound 0.1 µM, first compound 0.0316 µM
[32] = second compound 0.1 µM, first compound 0.1 µM
[33] = second compound 0.1 µM, first compound 0.316 µM
[34] = second compound 0.1 µM, first compound 1 µM
[35] = second compound 0.1 µM, first compound 3.16 µM
[36] = second compound 0.1 µM, first compound 10 µM
[37] = second compound 0.316 µM, first compound 0.0316 µM
[38] = second compound 0.316 µM, first compound 0.1 µM
[39] = second compound 0.316 µM, first compound 0.316 µM
[40] = second compound 0.316 µM, first compound 1 µM
[41] = second compound 0.316 µM, first compound 3.16 µM
[42] = second compound 0.316 µM, first compound 10 µM
[43] = second compound 1 µM, first compound 0.0316 µM
[44] = second compound 1 µM, first compound 0.1 µM
[45] = second compound 1 µM, first compound 0.316 µM
[46] = second compound 1 µM, first compound 1 µM
[47] = second compound 1 µM, first compound 3.16 µM
[48] = second compound 1 µM, first compound 10 µM
[49] = second compound 3.16 µM, first compound 0.0316 µM
[50] = second compound 3.16 µM, first compound 0.1 µM
[51] = second compound 3.16 µM, first compound 0.316 µM
[52] = second compound 3.16 µM, first compound 1 µM
[53] = second compound 3.16 µM, first compound 3.16 µM
[54] = second compound 3.16 µM, first compound 10 µM
[55] = second compound 10 µM, first compound 0.0316 µM
[56] = second compound 10 µM, first compound 0.1 µM
[57] = second compound 10 µM, first compound 0.316 µM
[58] = second compound 10 µM, first compound 1 µM
[59] = second compound 10 µM, first compound 3.16 µM
[60] = second compound 10 µM, first compound 10 µM
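For viability, T/C in this document: spheroids mix tumor cells with HUVEC endothelium and human MSC stroma; luminescence taken as viability surrogate after a week of drug exposure.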

CC(C)CC(NC(=O)C(Cc1ccccc1)NC(=O)c1cnccn1)B(O)O (stereo not given) + Cc1ccccc1N=Nc1ccc(NC(=O)c2ccnn2C)c(C)c1
IC50 (second compound 0.1 µM): 0.0161 µM
IC50 (second compound 0.316 µM): 0.0163 µM
IC50 (second compound 1 µM): 0.0173 µM
IC50 (second compound 3.16 µM): 0.0151 µM
IC50 (second compound 10 µM): 0.00876 µM
viability, T/C [1]: 91.3%
viability, T/C [2]: 77.6%
viability, T/C [3]: 105%
viability, T/C [4]: 0.49%
viability, T/C [5]: 0.24%
viability, T/C [6]: 1.83%
viability, T/C [7]: 95.3%
viability, T/C [8]: 89.4%
viability, T/C [9]: 97.4%
viability, T/C [10]: 0.67%
viability, T/C [11]: 0.36%
viability, T/C [12]: 0.41%
viability, T/C [13]: 127%
viability, T/C [14]: 99.8%
viability, T/C [15]: 101%
viability, T/C [16]: 2.56%
viability, T/C [17]: 2.56%
viability, T/C [18]: 0.41%
viability, T/C [19]: 146%
viability, T/C [20]: 119%
viability, T/C [21]: 82.3%
viability, T/C [22]: 1.3%
viability, T/C [23]: 0.26%
viability, T/C [24]: 0.34%
viability, T/C [25]: 142%
viability, T/C [26]: 153%
viability, T/C [27]: 42.7%
viability, T/C [28]: 1.3%
viability, T/C [29]: 3.29%
viability, T/C [30]: 0.52%

CCc1c2c(nc3ccc(O)cc13)-c1cc3c(c(=O)n1C2)COC(=O)[C@]3(O)CC + Cc1ccccc1N=Nc1ccc(NC(=O)c2ccnn2C)c(C)c1
IC50 (second compound 0.1 µM): 0.00412 µM
IC50 (second compound 0.316 µM): 0.0048 µM
IC50 (second compound 1 µM): 0.00466 µM
IC50 (second compound 3.16 µM): 0.0064 µM
IC50 (second compound 10 µM): 0.0071 µM
viability, T/C [1]: 65.2%
viability, T/C [2]: 56%
viability, T/C [3]: 36.5%
viability, T/C [4]: 27%
viability, T/C [5]: 18.6%
viability, T/C [6]: 13.8%
viability, T/C [7]: 74.3%
viability, T/C [8]: 60.9%
viability, T/C [9]: 34.1%
viability, T/C [10]: 22.3%
viability, T/C [11]: 17%
viability, T/C [12]: 12.9%
viability, T/C [13]: 91.7%
viability, T/C [14]: 61.8%
viability, T/C [15]: 30.2%
viability, T/C [16]: 23.2%
viability, T/C [17]: 17.5%
viability, T/C [18]: 14.3%
viability, T/C [19]: 95.3%
viability, T/C [20]: 78.3%
viability, T/C [21]: 33.9%
viability, T/C [22]: 23.5%
viability, T/C [23]: 15.3%
viability, T/C [24]: 11.7%
viability, T/C [25]: 114%
viability, T/C [26]: 89.8%
viability, T/C [27]: 35.1%
viability, T/C [28]: 24.1%
viability, T/C [29]: 16.2%
viability, T/C [30]: 11.5%

COc1cc(Nc2ncc3c(n2)-c2ccc(Cl)cc2C(c2c(F)cccc2OC)=NC3)ccc1C(=O)O + Cc1ccccc1N=Nc1ccc(NC(=O)c2ccnn2C)c(C)c1
IC50 (second compound 0.1 µM): > 10 µM
IC50 (second compound 0.316 µM): > 10 µM
IC50 (second compound 1 µM): > 10 µM
IC50 (second compound 3.16 µM): > 10 µM
IC50 (second compound 10 µM): > 10 µM
viability, T/C [31]: 81.3%
viability, T/C [32]: 76%
viability, T/C [33]: 69.8%
viability, T/C [34]: 68.1%
viability, T/C [35]: 63.8%
viability, T/C [36]: 48.5%
viability, T/C [37]: 89.5%
viability, T/C [38]: 79.9%
viability, T/C [39]: 72.4%
viability, T/C [40]: 60.2%
viability, T/C [41]: 71.4%
viability, T/C [42]: 55.4%
viability, T/C [43]: 109%
viability, T/C [44]: 69.8%
viability, T/C [45]: 74.3%
viability, T/C [46]: 58.9%
viability, T/C [47]: 62.1%
viability, T/C [48]: 53.9%
viability, T/C [49]: 98.6%
viability, T/C [50]: 77%
viability, T/C [51]: 68.3%
viability, T/C [52]: 74.2%
viability, T/C [53]: 74.7%
viability, T/C [54]: 71.4%
viability, T/C [55]: 122%
viability, T/C [56]: 96.1%
viability, T/C [57]: 94.6%
viability, T/C [58]: 88.5%
viability, T/C [59]: 83.4%
viability, T/C [60]: 90.7%

Nc1ccccc1NC(=O)c1ccc(CNC(=O)OCc2cccnc2)cc1 + Cc1ccccc1N=Nc1ccc(NC(=O)c2ccnn2C)c(C)c1
IC50 (second compound 0.1 µM): 5.03 µM
IC50 (second compound 0.316 µM): 5.29 µM
IC50 (second compound 1 µM): 5.68 µM
IC50 (second compound 3.16 µM): 6.93 µM
IC50 (second compound 10 µM): 7.2 µM
viability, T/C [31]: 121%
viability, T/C [32]: 129%
viability, T/C [33]: 130%
viability, T/C [34]: 104%
viability, T/C [35]: 64.6%
viability, T/C [36]: 29.6%
viability, T/C [37]: 95.2%
viability, T/C [38]: 137%
viability, T/C [39]: 147%
viability, T/C [40]: 109%
viability, T/C [41]: 69.8%
viability, T/C [42]: 26.4%
viability, T/C [43]: 135%
viability, T/C [44]: 154%
viability, T/C [45]: 155%
viability, T/C [46]: 116%
viability, T/C [47]: 67.5%
viability, T/C [48]: 34.4%
viability, T/C [49]: 141%
viability, T/C [50]: 164%
viability, T/C [51]: 154%
viability, T/C [52]: 131%
viability, T/C [53]: 71.4%
viability, T/C [54]: 40%
viability, T/C [55]: 165%
viability, T/C [56]: 168%
viability, T/C [57]: 152%
viability, T/C [58]: 129%
viability, T/C [59]: 78.1%
viability, T/C [60]: 38.7%

O=C(C=Cc1cccc(S(=O)(=O)Nc2ccccc2)c1)NO + Cc1ccccc1N=Nc1ccc(NC(=O)c2ccnn2C)c(C)c1
IC50 (second compound 0.1 µM): > 10 µM
IC50 (second compound 0.316 µM): 6.54 µM
IC50 (second compound 1 µM): > 10 µM
IC50 (second compound 3.16 µM): 2.92 µM
IC50 (second compound 10 µM): 3.55 µM
viability, T/C [31]: 95.4%
viability, T/C [32]: 104%
viability, T/C [33]: 121%
viability, T/C [34]: 96%
viability, T/C [35]: 72.6%
viability, T/C [36]: 52%
viability, T/C [37]: 102%
viability, T/C [38]: 115%
viability, T/C [39]: 128%
viability, T/C [40]: 89.2%
viability, T/C [41]: 65.5%
viability, T/C [42]: 41.5%
viability, T/C [43]: 105%
viability, T/C [44]: 136%
viability, T/C [45]: 136%
viability, T/C [46]: 102%
viability, T/C [47]: 59.5%
viability, T/C [48]: 48.9%
viability, T/C [49]: 105%
viability, T/C [50]: 116%
viability, T/C [51]: 154%
viability, T/C [52]: 93.7%
viability, T/C [53]: 54.2%
viability, T/C [54]: 39.4%
viability, T/C [55]: 147%
viability, T/C [56]: 146%
viability, T/C [57]: 129%
viability, T/C [58]: 87.9%
viability, T/C [59]: 56.6%
viability, T/C [60]: 24.9%

O=C(c1cc(Cc2n[nH]c(=O)c3ccccc23)ccc1F)N1CCN(C(=O)C2CC2)CC1 + Cc1ccccc1N=Nc1ccc(NC(=O)c2ccnn2C)c(C)c1
IC50 (second compound 0.1 µM): > 10 µM
IC50 (second compound 0.316 µM): > 10 µM
IC50 (second compound 1 µM): > 10 µM
IC50 (second compound 3.16 µM): > 10 µM
IC50 (second compound 10 µM): > 10 µM
viability, T/C [31]: 101%
viability, T/C [32]: 83.6%
viability, T/C [33]: 98.5%
viability, T/C [34]: 104%
viability, T/C [35]: 73.6%
viability, T/C [36]: 63.1%
viability, T/C [37]: 90%
viability, T/C [38]: 85.7%
viability, T/C [39]: 101%
viability, T/C [40]: 88.6%
viability, T/C [41]: 80.8%
viability, T/C [42]: 77.8%
viability, T/C [43]: 134%
viability, T/C [44]: 107%
viability, T/C [45]: 136%
viability, T/C [46]: 89.8%
viability, T/C [47]: 93%
viability, T/C [48]: 63.6%
viability, T/C [49]: 124%
viability, T/C [50]: 109%
viability, T/C [51]: 129%
viability, T/C [52]: 106%
viability, T/C [53]: 118%
viability, T/C [54]: 98%
viability, T/C [55]: 141%
viability, T/C [56]: 155%
viability, T/C [57]: 148%
viability, T/C [58]: 131%
viability, T/C [59]: 113%
viability, T/C [60]: 103%
